Measurements published in US20080188461A1, “Compositions and methods for detecting, preventing and treating seizures and seizure related disorders” (Regents of the University of Michigan, priority 2007, published 2008).

Tested on: seizures
Experiment: Reduction in the number of seizures in individuals with multiple daily seizures treated with rapamycin
Type: in vivo, human
Conditions: up to 7 mg/day rapamycin in combination with an anti-epileptic drug regimen, treatment 31-32 months
Protocol: In particular, 14 individuals experiencing multiple daily seizures (4 males with diagnosed TSC, 5 females with diagnosed TSC, 1 person with diagnosed Lennox-Gastaut Syndrome, and 4 females with diagnosed Lennox-Gastaut Syndrome) between the ages of 3-18 were administered rapamycin in combination with an anti-epileptic drug regimen. […] Each individual received between up to 7 mg/day of rapamycin. […] The duration of treatment was between 31 and 32 months.

Compound: CO[C@H]1C[C@@H]2CC[C@@H](C)[C@@](O)(O2)C(=O)C(=O)N2CCCC[C@H]2C(=O)O[C@H]([C@H](C)C[C@@H]2CC[C@@H](O)[C@H](OC)C2)CC(=O)[C@H](C)/C=C(\C)[C@@H](O)[C@@H](OC)C(=O)[C@H](C)C[C@H](C)/C=C/C=C/C=C/1C [rapamycin, Rapamycin]
- reduction in seizures (2 of the individuals diagnosed with TSC): greater than 90%
- reduction in seizures (3 of the individuals diagnosed with Lennox-Gastaut Syndrome): greater than 90%
- reduction in seizures (5 of the individuals diagnosed with Lennox-Gastaut Syndrome): greater than 50%
- reduction in seizures (5 of the individuals diagnosed with TSC): greater than 50%
